Series [1] has as its system VSMC phenotype in plaques (α-SMA, CD68, RUNX2, eYFP). In words: In vivo immunohistochemistry: cellular composition of aortic root plaques. The settings on record: one month after single dose. Further details: species or system mice. The procedure: (§1) Subsequently, mice were fed a high fat diet (20-23% milkfat, 34% sucrose, 0.2% cholesterol, Teklad Envigo) for 2 weeks before intravenous tail vein injection of treatment (miR-145 micelles, miR-67 micelles, scrambled MCP-1 (NT) miR-145 micelles, free miR-145 (1 mg/kg miR or 0.7 mM total micelle), or PBS). Mice continued high fat diet for an additional 4 weeks or 8 weeks for short- and longer-term efficacy analyses. Mice were then euthanized via CO2 asphyxiation and perfused with PBS, 4% paraformaldehyde (PFA), and PBS again. Organs and aorta were carefully dissected and saved for additional analyses.
Aortic roots were cryosectioned as mentioned above. Tissue sections were blocked in 10% donkey serum with 1% BSA. Sections were subsequently stained with antibodies to GFP (Abcam ab6673), α-SMA (Abcam ab5694), CD68 (Abcam ab125212), and RUNX2 (Abcam ab192256) overnight at 4° C. Donkey anti-rabbit IgG Alexa Fluor 594 (Thermo Fisher, Waltham, MA, USA) and donkey anti-goat IgG Alex Fluor 488 (Thermo Fisher, Waltham, MA, USA) were used as secondary antibodies. Sections were counterstained with DAPI for the nuclei, mounted in ProLong Gold Antifade (Thermo Fisher, Waltham, MA, USA), and imaged using a confocal microscope (Nikon C2 CLSM, Nikon, Tokyo, Japan). Cells were then counted using ImageJ software. […]

For another series, the system named is atherosclerotic plaques. In words: Analysis of atherosclerotic lesions (aortic root H&E, en face Oil Red O) after a single IV dose. The class given is in vivo, mice. The procedure:
Male Myh11-CreER^T2 ROSA26 STOP-flox eYFP^+/+ Apoe^−/− mice and female Apoe^−/− mice were used for all studies as the Myh11 transgene is expressed only in male mice. Mice were genotyped by qPCR. Following previously reported methods, mice received ten intraperitoneal injections of 1 mg tamoxifen from 6 weeks of age to 8 weeks for 10 mg total of tamoxifen per 25 g of mouse body weight.
as §1
Atherosclerotic plaques were analyzed in two ways: 1) en face analysis of entire aorta with Oil Red O (ORO) lipid stain and 2) hematoxylin and eosin (H&E) stains of cross sections of aortic roots. Briefly, aortas were dissected from the root to the common iliac arteries. Excess adventitial fat was carefully removed and the aorta was fixed in 4% PFA overnight. The tissue was then cleaned in 78% methanol for 5 min before staining for 1 h with 0.2% ORO solution in methanol. The aortas were then washed twice with 78% methanol for 5 min each and cut open longitudinally before imaging with a stereomicroscope (Leica, Wetzlar, Germany). Quantification of positively stained lesions was done using ImageJ software (NIH, Bethesda, MD). Aortic roots were embedded in optimal cutting temperature compound (OCT) and flash frozen in 2-methylbutane and liquid nitrogen. Roots were sectioned at 10 μm thick sections and stained using H&E. Plaque and necrotic core area in three aortic root sections were quantified and averaged for each sample to obtain a mean±S.D. measurement.

The next series relates to miR-145. In words: In vivo miR-145 expression in liver tissue (RT-qPCR). Also noted: species or system mice. Conditions: one month post treatment. The procedure: as §1
Aortic roots and liver tissue were obtained from treated mice. Tissues were weighed and lysed with Trizol (Invitrogen, Carlsbad, CA). miRNeasy Mini Kit (Qiagen, Hilden, Germany) was used to extract microRNA and the miScript II RT Kit (Qiagen, Hilden, Germany) was used to synthesize cDNA according to manufacturer's instructions. Real-time qRT-PCR was performed on the LightCycler 480 Real-Time PCR System ([…]) to evaluate miR-145 levels. RNU-6 was used as an internal control and the 2-AACT method was used to calculate relative expression changes.
(In general: Quantitative PCR measures a nucleic acid by following its amplification.)

Series [2] in a line: Serum cholesterol quantification (HDL, LDL). In kind it is in vivo, mice. The settings on record: two months post injection. The procedure:
Serum cholesterol levels were quantified using a high density lipoprotein (HDL) and low density lipoprotein (LDL) quantification kit (Sigma-Aldrich). Following the manufacturer's protocol, HDL and LDL were separated in serum using precipitation buffer. HDL and LDL samples were subsequently incubated with Reaction Mixes and fluorescence (ex: 535 nm/em: 587 nm) was measured using a plate reader (Varioskan LUX, Thermo Fisher, Waltham, MA, USA).

Setting [3] is: one month after single dose, 1 mg/kg miR IV.

As to “free miR-145: unformulated miR-145, 5′-GUCCAGUUUUCCCAGGAAUCCCU-3′ (SEQ ID NO: 2) (listed as RNA, chemistry not given here; listed as Homo sapiens)”, in series [1], the “overlap in eYFP and α-SMA signal (α-SMA+YFP+/YFP+)” value came out at 30.0±22.1%; the “α-SMA expression within plaques (α-SMA+/DAPI)” value worked out at 40.1±30.7%. Further, in the series on atherosclerotic plaques (setting [3]), the “overall lesion area of the aorta (ORO en face)” value is given as 7.0±1.3% and the “plaque area in the aortic root” value was found to be 2.1±0.9%. Besides, in the series on atherosclerotic plaques (two months after single dose), the “lesion area by en face ORO staining” value was 8.0±2.0% and the “plaque/lesional area in the aortic root” value worked out at 10.8±5.0%. Moreover, the “miR-145 expression in the liver, fold increase compared to PBS” value with miR-145 is 1.5 fold. Also, the “serum HDL level” value in series [2] is listed as “increases”.

Values taken from patent US12508322B2, “MIR-145 micelles for mitigating atherosclerosis” (University of Southern California, priority 2021, dated 2025).
